Measurements reported in EP0738513A1, “Method for using ergoline compounds to effect physiological and pathological functions at the 5-HT7 receptor” (ELI LILLY AND COMPANY, priority 1995, dated 1996).
Like-named read-outs stand apart in the source and are kept apart here.

Key:
[1] = test system: 5-HT7 receptor in the dog coronary artery; experiment: antagonism of 5-HT-induced relaxation in endothelium-denuded canine coronary artery rings precontracted with PGF2α; assay type: cell-based, mongrel dogs; details: for relaxant activity as agonist in canine coronary artery: agonist alone; for pA2 (-log KB): antagonist dissociation constant against 5-HT-induced relaxation, Schild analysis for compounds II and IV
Method: (§1) Hearts were obtained from mongrel dogs anesthetized with sodium pentobarbital (30mg/kg, i.v.) and placed in oxygenated modified Krebs' solution of the following composition (millimolar): NaCl, 118; KCl, 4.6; CaCl2, 1.6; KH2PO4, 1.2; MgSO4 1.2, glucose, 10; NaHCO3 24.8 (pH 7.4). The left anterior descending and circumflex coronary arteries were dissected from the hearts, cleaned of fat and adhering tissue and cut into rings (approximately 2-3mm outer diameter and 4-5mm in length). The intimal surface of the rings was gently rubbed with a pair of forceps to remove the endothelium. Tissues were then mounted between two stainless steel hooks and placed in 10ml organ chambers constantly exposed to oxygenated modified Krebs' solution (95% O2/5% CO2; pH 7.4; 37°C). Tissues were equilibrated for 1 hour under an initial optimal passive force of 4g determined previously from length-tension experiments. The buffer was replaced every 15 minutes during equilibration. Isometric force was measured with Statham UC3 force transducers connected to a Beckman dynograph (R611). After lhr equilibration, tissues were depolarized twice with 50mM KCl for 30min with a 20min washing period between. The integrity of the endothelium was examined with acetylcholine (1µM), bradykinin (100nM), or the ionophore A23187 (1µM). Rings that relaxed to these agents were not used in this study.
(§2) Tissues prepared as described in Example 1 were precontracted with PGF2α (10µM) which produced a tonic contraction that remained at or above 92.8±2.1% (n=14) of the original maximum force throughout the experiment. Cumulative concentration-response curves to 5-HT were generated in tissues incubated with either vehicle or antagonist for 1hr. In some experiments contraction was measured in tissues under basal tone upcn the cumulative addition of 5-HT. These tissues were treated with prazosin (1µM) to block any potential α adrenoceptor activation and in the absence or presence of antagonist.
(§3) All results are expressed as mean ± S.E. where "n" represents the number of rings examined. No more than two rings were used from each animal for each compound studied. The relaxation data is expressed as percent relaxation of the contraction produced by PGF2α . The contraction data is expressed as percent of a maximal KCl (50mM) contraction. The EC50 was the concentration of the agonist producing half-maximal response and was determined by least squares linear regression analysis of the linear portion of the agonist concentration-response curve and expressed as -log EC50 (pEC50).
Apparent antagonist dissociation constants (KB) were determined for each antagonist according to the following equation: KB =((B))/((dose ratio -1)) [formula] where (B) is the concentration of the antagonist and dose ratio is the EC50 of the agonist in the presence of the antagonist divided by the EC50 of the agonist in vehicle treated tissues. […] Significant differences between vehicle and antagonist treated tissues were determined with Student's t-test. The alpha value was set a priori at 0.05.
The data was also analyzed in accord with the procedure of Arunlakshana and Schild (1959). The dose ratio was determined at various concentrations of antagonist compound II or compound IV. If blockade is competitive under equilibrium conditions a plot of the logarithm (dose ratio - 1) against the negative logarithm of the molar concentration of antagonist should yield a straight line whose slope is not different from unity and whose intercept on the abscissa is the pA2, which is generally considered to be equivalent to -log KB.

[2] = test system: endothelium denuded canine coronary artery; experiment: agonist-induced contraction in endothelium-denuded canine coronary artery under basal tone; assay type: cell-based, mongrel dogs; details: for contractile response as agonist: no antagonist
Method: as §1, §2, §3

[3] = bioavailability after oral administration in rats; assay type: in vivo; details: comparative statement
human 5-HT7 receptor = human 5-HT7 receptor (Homo sapiens, UniProt P34969); experiment: receptor binding studies at the human 5-HT7 receptor
From the text: The general chemical structure for three particularly useful compounds of the invention (compounds III - V) are shown below: [drawing 3]

5-HT7 receptor = 5-HT7 receptor (Rattus norvegicus, UniProt P32305); details: receptor expressed in mammalian cells; Shen at 18200; cited from earlier work
[4] = rings precontracted with PGF2α (10µM)
[5] = antagonist 0.3-10µM, rings precontracted with PGF2α (10µM)
[6] = antagonist 1µM, vessels under basal tone

human 5-HT7 receptor, sequence (P34969 whole entry): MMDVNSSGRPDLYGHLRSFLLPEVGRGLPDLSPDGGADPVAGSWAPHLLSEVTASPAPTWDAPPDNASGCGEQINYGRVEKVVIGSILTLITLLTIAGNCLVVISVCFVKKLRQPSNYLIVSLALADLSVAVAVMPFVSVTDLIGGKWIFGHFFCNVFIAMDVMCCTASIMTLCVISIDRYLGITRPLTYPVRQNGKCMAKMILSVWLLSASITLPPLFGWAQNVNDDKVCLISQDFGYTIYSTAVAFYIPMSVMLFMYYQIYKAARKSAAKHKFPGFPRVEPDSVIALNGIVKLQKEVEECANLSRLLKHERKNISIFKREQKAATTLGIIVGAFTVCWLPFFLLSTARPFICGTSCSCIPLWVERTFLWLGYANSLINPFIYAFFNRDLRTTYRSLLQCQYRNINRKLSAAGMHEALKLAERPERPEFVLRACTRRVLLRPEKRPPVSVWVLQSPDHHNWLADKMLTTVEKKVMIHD
5-HT7 receptor, sequence (P32305 whole entry): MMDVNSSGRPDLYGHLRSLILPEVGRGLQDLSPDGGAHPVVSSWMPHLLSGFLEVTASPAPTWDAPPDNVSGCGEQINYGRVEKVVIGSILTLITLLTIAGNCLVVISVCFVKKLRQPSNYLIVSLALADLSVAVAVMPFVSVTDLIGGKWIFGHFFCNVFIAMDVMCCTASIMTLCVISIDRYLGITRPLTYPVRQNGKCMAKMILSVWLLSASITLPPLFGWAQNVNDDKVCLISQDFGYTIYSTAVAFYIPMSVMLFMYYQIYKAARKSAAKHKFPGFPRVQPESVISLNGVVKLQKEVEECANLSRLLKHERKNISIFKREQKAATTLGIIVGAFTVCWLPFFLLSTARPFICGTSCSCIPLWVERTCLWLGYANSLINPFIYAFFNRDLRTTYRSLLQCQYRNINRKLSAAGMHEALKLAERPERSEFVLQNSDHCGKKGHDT

Structure (SMILES): NCCc1c[nH]c2ccc(C(N)=O)cc12 [5-CT, 5-carboxamidotryptamine]
- relaxant activity as agonist in canine coronary artery [1]: potent relaxant agonist
- contractile response as agonist in the presence of compound IV ([2]; basal tone, compound IV (1µm) present to block relaxation): concentration-dependently contracted
- contractile response as agonist ([2]; vessels under basal tone): did not significantly contract

Structure (SMILES): NCCc1c[nH]c2ccc(O)cc12 [5-HT, 5-hydroxytryptamine]
- contractile response as agonist ([2]; vessels under basal tone): biphasic contractile response

Structure (SMILES): COc1ccc2[nH]cc(CCN)c2c1 [5-MeOT, 5-methoxytryptamine]
- contractile response as agonist ([2]; vessels under basal tone): biphasic contractile response

Structure (SMILES): CC(C)n1cc2c3c(cccc31)C1CC(C(=O)NC3CCCCC3)CN(C)C1C2 (stereo not shown) [COMPOUND III]
- bioavailability [3]: greater bioavailability than the ester compounds II and V
- Kd (human 5-HT7 receptor; read-out: -log KD (converted)): 25.1 nM
- Kd (human 5-HT7 receptor; read-out: KD): 27.1 ± 1.5 nM
- effect on 5-HT-induced relaxation ([1]; antagonist 1µM): blocked 5-HT-induced relaxation
- pA2 (-log KB) [1, 4]: 6.7

Structure (SMILES): CC(O)C(C)OC(=O)C1CC2c3cccc4c3c(cn4C(C)C)CC2N(C)C1 (stereo not shown) [COMPOUND II]
- Kd (human 5-HT7 receptor; read-out: -log KD (converted)): 631 nM
- Kd (human 5-HT7 receptor; read-out: KD): 609 nM
- effect on concentration-response curve to 5-HT (relaxation) [1, 5]: shifted the concentration-response curve to 5-HT significantly to the right
- effect on maximum relaxant response to 5-HT [1, 5]: did not alter
- pA2 (-log KB) [1, 4]: 6.5

Structure (SMILES): CC(C)n1cc2c3c(cccc31)C1CC(C(=O)NC3CCCC3O)CN(C)C1C2 (stereo not shown) [COMPOUND IV]
- bioavailability [3]: greater bioavailability than the ester compounds II and V
- Kd (human 5-HT7 receptor; read-out: -log KD (converted)): 12.6 nM
- Kd (human 5-HT7 receptor; read-out: KD): 13.3 ± 1.2 nM
- effect on 5-HT-induced relaxation ([1]; antagonist 10-100nM): blocked 5-HT-induced relaxation
- pA2 (-log KB) [1, 4]: 8.3
- effect on sumatriptan-induced contraction ([2]; antagonist 1µM, basal tone): did not significantly affect
- effect on contractile response produced by 5-HT and 5-MeOT [2, 6]: not affecting
- effect on relaxant phase of the biphasic response to 5-HT and 5-MeOT [2, 6]: significantly attenuated

Structure (SMILES): CN(C)CCC=C1c2ccccc2CCc2ccccc21 [amitriptyline]
- affinity of the 5-HT7 receptor to the drug (5-HT7 receptor): high affinity

Structure (SMILES): CNS(=O)(=O)Cc1ccc2[nH]cc(CCN(C)C)c2c1 [sumatriptan]
- relaxant activity as agonist in canine coronary artery [1]: lacking relaxant activity
